Common to all, as to assay: Test A preemergence
Common to all, as to type: in vivo

Assay [1] concerns Kochia (Kochia scoparia). Particulars: Bassia scoparia, pre-emergence, 240 h, preemergence, 0 to 100 scale where 0 is no effect and 100 is complete control, read-out: Kochia plant response rating; for pest or weed control at 125 g/ha: 125 g ai/ha, visual injury rating, approximately 10 d; for pest or weed control at 500 g/ha: 500 g ai/ha. The method, boiled down:
(§1)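 Treatment is preemergence as a directed soil spray after planting, or postemergence at the one- to two-leaf stage, with test chemical in a non-phytotoxic solvent mixture plus surfactant. Plants stay in the greenhouse about 10 d before visual injury scoring on a 0 to 100 scale versus untreated controls.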

In assay [2] the test system is barnyardgrass (Echinochloa crus-galli). Conditions: Echinochloa crus-galli, pre-emergence, 240 h, preemergence, 0 to 100 scale where 0 is no effect and 100 is complete control, read-out: Barnyardgrass plant response rating; for pest or weed control at 125 g/ha: 125 g ai/ha, visual injury rating, approximately 10 d; for pest or weed control at 500 g/ha: 500 g ai/ha. In outline:
as §1

Assay [3] relates to giant foxtail (Setaria faberii). Particulars: Setaria faberi, pre-emergence, 240 h, preemergence, 0 to 100 scale where 0 is no effect and 100 is complete control, read-out: Foxtail, Giant plant response rating; for pest or weed control at 125 g/ha: 125 g ai/ha, visual injury rating, approximately 10 d; for pest or weed control at 500 g/ha: 500 g ai/ha. The method, boiled down:
as §1

In assay [4] the test system is pigweed (Amaranthus retroflexus). Conditions: Amaranthus retroflexus, pre-emergence, 240 h, preemergence, 0 to 100 scale where 0 is no effect and 100 is complete control, read-out: Pigweed plant response rating; for pest or weed control at 125 g/ha: 125 g ai/ha, visual injury rating, approximately 10 d; for pest or weed control at 500 g/ha: 500 g ai/ha.
The subject of assay [5] is ragweed (common ragweed, Ambrosia elatior). Conditions: Ambrosia artemisiifolia, pre-emergence, 240 h, preemergence, 0 to 100 scale where 0 is no effect and 100 is complete control, read-out: Ragweed plant response rating; for pest or weed control at 125 g/ha: 125 g ai/ha, visual injury rating, approximately 10 d; for pest or weed control at 500 g/ha: 500 g ai/ha. In outline: as §1

The structures appear in SMILES notation.

Regarding `COc1cc(C(F)(F)F)ccc1[C@H]1CNC(=O)[C@@H]1C(=O)Nc1cccc(F)c1F` [Compound 1203], the pest or weed control at 125 g/ha amounted to 20% in assay [1]; 80% in assay [2]; 80% in assay [3]; 0% in assay [4]; 30% in assay [5]. Further, the pest or weed control at 500 g/ha in assay [1] came to 50%; in assay [2], 90%; in assay [3] it was 90%; in assay [4], 20%; in assay [5] it was 80%.
On to `N#Cc1ccc([C@H]2CNC(=O)[C@@H]2C(=O)Nc2cccc(F)c2F)cc1` [Compound 1206], for which the pest or weed control at 125 g/ha came to 60% in assay [1]; 70% in assay [2]; 80% in assay [3]; 50% in assay [4]; 0% in assay [5]. Also, the pest or weed control at 500 g/ha in assay [1] came to 100%; in assay [2] it was 100%; in assay [3], 90%; in assay [4], 90%; in assay [5], 60%.
For the compound `COc1ccc([C@H]2CN(C)C(=O)[C@@H]2C(=O)Nc2ccccc2SC)c(OC)c1` [Compound 1216], the pest or weed control at 125 g/ha in assay [1] is 0%; in assay [2], 0%; in assay [3] it was 30%; in assay [4], 0%; in assay [5], 0%. For the same compound, the pest or weed control at 500 g/ha in assay [2] came out at 90%; in assay [3] it was 80%; in assay [4], 0%; in assay [5] it was 20%.
Regarding `COc1cc([C@H]2CN(C)C(=O)[C@@H]2C(=O)Nc2ccccc2SC)cc(OC)c1OC` [Compound 1218], the pest or weed control at 125 g/ha in assay [1] was found to be 0%; in assay [2], 30%; in assay [3], 80%; in assay [4], 0%; in assay [5], 0%. Further, the pest or weed control at 500 g/ha in assay [1] is 0%; in assay [2], 100%; in assay [3], 90%; in assay [4] it was 0%; in assay [5], 0%.
As for `Cc1ccc([C@H]2CCN(C)C(=O)[C@@H]2C(=O)Nc2ccccc2C(F)(F)F)cc1` [Compound 1219], the pest or weed control at 125 g/ha in assay [1] was determined as 0%; in assay [2], 70%; in assay [3] it was 80%; in assay [4], 0%; in assay [5] it was 0%. Also, the pest or weed control at 500 g/ha turned out to be 0% in assay [1]; 90% in assay [2]; 90% in assay [3]; 0% in assay [4]; 0% in assay [5].
In the case of `Cc1ccc([C@H]2CCN(C)C(=O)[C@@H]2C(=O)Nc2cccc(Cl)c2F)cc1` [Compound 1223], the pest or weed control at 125 g/ha is 0% in assay [1]; 90% in assay [2]; 90% in assay [3]; 0% in assay [4]; 0% in assay [5]. The pest or weed control at 500 g/ha in assay [1] was 20%; in assay [2], 90%; in assay [3], 90%; in assay [4] it was 0%; in assay [5] it was 20%.
With `CN1CC[C@H](c2ccc(C(F)(F)F)cc2)[C@@H](C(=O)Nc2ccccc2C(F)(F)F)C1=O` [Compound 1224], the pest or weed control at 125 g/ha in assay [1] worked out at 0%; in assay [2], 40%; in assay [3], 80%; in assay [4] it was 50%; in assay [5], 0%. Besides, the pest or weed control at 500 g/ha in assay [1] came to 0%; in assay [2] it was 80%; in assay [3], 90%; in assay [4] it was 70%; in assay [5], 20%.
Regarding `CN1CC[C@H](c2ccc(C(F)(F)F)cc2)[C@@H](C(=O)Nc2ccc(F)c(F)c2F)C1=O` [Compound 1226], the pest or weed control at 125 g/ha came to 60% in assay [1]; 90% in assay [2]; 100% in assay [3]; 80% in assay [4]; 0% in assay [5]. Besides, the pest or weed control at 500 g/ha in assay [1] was 70%; in assay [2], 100%; in assay [3], 100%; in assay [4], 90%; in assay [5] it was 30%.
Regarding `CN1CC[C@H](c2ccc(C(F)(F)F)cc2)[C@@H](C(=O)Nc2cccc(Cl)c2F)C1=O` [Compound 1228], the pest or weed control at 125 g/ha in assay [1] came out at 0%; in assay [2], 90%; in assay [3], 90%; in assay [4], 20%; in assay [5] it was 0%. Also, the pest or weed control at 500 g/ha in assay [1] is 0%; in assay [2], 90%; in assay [3], 90%; in assay [4] it was 60%; in assay [5] it was 0%.
Consider `CN1C[C@H](c2ccc(C#N)cc2)[C@@H](C(=O)Nc2ccc(F)c(F)c2F)C1=O` [Compound 1229], for which the pest or weed control at 125 g/ha in assay [1] was 90%; in assay [2], 90%; in assay [3], 100%; in assay [4], 60%; in assay [5], 60%. Besides, the pest or weed control at 500 g/ha in assay [1] came out at 90%; in assay [2] it was 100%; in assay [3], 100%; in assay [4] it was 90%; in assay [5], 70%.
Turning to `CSc1ccccc1NC(=O)[C@H]1C(=O)N(C)C[C@@H]1c1ccc(C#N)cc1` [Compound 1230], the pest or weed control at 125 g/ha in assay [1] worked out at 70%; in assay [2] it was 0%; in assay [3], 40%; in assay [4], 20%; in assay [5], 0%. Moreover, the pest or weed control at 500 g/ha in assay [1] is 90%; in assay [2], 50%; in assay [3] it was 90%; in assay [4] it was 30%; in assay [5], 0%.
Regarding `Cc1cccc([C@H]2CN(C)C(=O)[C@@H]2C(=O)Nc2ccc(F)c(F)c2F)c1` [Compound 1231], the pest or weed control at 125 g/ha came out at 70% in assay [1]; 90% in assay [2]; 90% in assay [3]; 40% in assay [4]; 30% in assay [5]. Moreover, the pest or weed control at 500 g/ha in assay [1] was found to be 90%; in assay [2] it was 90%; in assay [3], 90%; in assay [4], 70%; in assay [5] it was 60%.
For the compound `Cc1cccc([C@H]2CN(C)C(=O)[C@@H]2C(=O)Nc2cccc(F)c2C)c1` [Compound 1233], the pest or weed control at 125 g/ha came to 70% in assay [1]; 90% in assay [2]; 90% in assay [3]; 40% in assay [4]; 30% in assay [5]. Also, the pest or weed control at 500 g/ha in assay [1] stood at 70%; in assay [2], 90%; in assay [3] it was 90%; in assay [4] it was 40%; in assay [5] it was 50%.
Turning to `O=C1NC[C@H](c2ccc(C(F)(F)F)cc2)C1C(=O)Nc1c(F)cccc1CO` (stereo partly shown) [Compound 1243], the pest or weed control at 125 g/ha in assay [1], in assay [2], in assay [3], in assay [4] and in assay [5] was 0% in each case. Further, the pest or weed control at 500 g/ha in assay [1], in assay [2], in assay [3], in assay [4] and in assay [5] was 0% in each case.

The values above are taken from patent publication US12077503B2, “Substituted cyclic amides and their use as herbicides” (FMC CORPORATION, priority 2015, dated 2024).
